# Experimental data as given in US20020054872A1, “Peptides for the treatment of systemic lupus erythematosus and methods of treating systemic lupus erythematosus” (priority 1997, published 2002).
# Residues, ends and D or L forms follow the SMILES beside them.
# Columns and labels:
# [1] = test system: B3 human anti-DNA antibody; test: Direct binding ELISA of B3 to laminin peptides
# Method: (§1) The C72 murine anti-DNA antibody has been derived from (NZB×NZW)F1 lupus mice by the hybridoma technique as described in Eilat D. et al J. Immunol. […] The monoclonal anti-DNA antibodies DIL6 and B3 were derived from lupus patients by hybridoma technique as described in Ehrenstein M. R. et al J. Clin. Invest. (1994) 93 1787-1799 and Ehrenstein M. R. et al Kidney Inter. (1995) 48 705-711.
# (§2) Wells were coated with 10 μg/ml of the peptides, blocked with 1% BSA (bovine serum albumin) in PBS (pH 7,4), reacted with appropriately diluted serum or urine samples or monoclonal antibodies, incubated with anti-human or anti-mouse immunoglobulin enzyme conjugated to alkaline phosphatase and detected by addition of substrate (Sigma 100 Phosphatase Substrate Tablets) and color development using an Organon Teknika Microwell System spectrometer at wavelength of 405 nm.
# (§3) The human monoclonal anti-DNA antibodies DIL 6 and B3 were derived from lupus patients by the hybridoma technique. […] In FIGS. 3 and 4, the peptides are referred to as denoted above or as follows; AS30 is R27, AS19 is R35 AS35 is R26, AS17 is R28 and AS6 is R18.
# (§4) The peptides of the present invention were tested for their ability to bind directly with C72 murine anti-DNA antibodies and B3 human anti-DNA antibodies according to the method described hereinabove.
# [2] = test system: C72 murine anti-DNA antibody; test: Direct binding ELISA of C72 to laminin peptides; set-up: species or system mouse
# Method: as §1, §2
# The interaction of the C72 murine anti-DNA antibody with laminin peptides was analyzed by ELISA as described above. The C72 conditioned medium was diluted in PBS in various dilutions.
# as §4
# C72 anti-DNA antibody = test: Competitive inhibition of C72 binding to R38 (5100); set-up: species or system mouse; conditions: concentration of competitive inhibitor, ELISA
# Source text: A competitive inhibition study compared how each of the peptides competes with R38 (5100) for binding to the C72 anti-DNA antibody. Conducted according to the methods described hereinabove, the results of the study are disclosed in Table 4 below and are further elucidated by reference to FIG. 10.
# [3] = test system: anti-R38 antibodies in patients' plasma; test: Immunoabsorption of plasma on R38 column, anti-R38 ELISA; assay type: binding, human
# Method: (§5) The R38 peptide was dissolved in the coupling buffer (0.2M NaHCO3, 0.5M NaCl, pH 8.3) in a concentration of 1 mg/ml in 5 ml coupling buffer. A 5 ml N-hydroxysuccinimide (NHS)-activated Sepharose™ High Performance Column (Pharmacia 17-0717-01) is used. The isopropanol in the column was washed out from the column with 30 ml of cold (4° C.) 1 mM HCl and 5 ml of the peptide solution was then injected onto the column with a syringe (2.5 ml/minute). The column was sealed and stood for 30 minutes at room temperature. The column was then washed with 30 ml Buffer A (0.5 M ethanolamine, 0.5 M NaCl, pH 8.3) and 30 ml Buffer B (0.5 M acetate, 0.5 M NaCl, pH 4) consecutively three times, and then with neutral pH buffer (0.05 M Na2HP04 and 0.1% NaN3).
# (§6) The column was washed with 15 ml PBS (phosphate buffered saline), followed by 15 ml elution buffer (0.1 M glycine HCl) and then 50 ml PBS. The C72 antibody or the patients' plasma samples were filtered through a 0.45 microm filter. The samples were applied onto the column by a fitted syringe at a rate of 2.5 ml/min. The column was then washed with 5 ml PBS and the flow-through was applied to the column again. The binding of the samples (original and flow-through) to R38 was tested by the anti-R38 ELISA test.
# (§7) In the instant example, the mouse C72 and the SLE patients' plasma were applied to the R38 column. Their anti-R38 binding was evaluated by ELISA in the original samples and in the flow-through of the column.
# MRL/lpr/lpr mice = test: Effect on clinical course of murine SLE (survival, renal histology); assay type: in vivo, mouse; conditions: from 6 weeks old
# Method: To test whether R38 peptides can affect the course of SLE we have tested their effect on MRL/lpr/lpr mice disease. 60 μg of 5200 (R38′ alone or in peptide combinations, 30 μg of each) in 0.1 ml PBS, was injected i.p. to 6 week old female MLR/lpr/lpr mice once a week for 16 week and the mice were evaluated for survival (FIG. 8), and for renal histology. 50 μg of 5100 (R38) or 5300 (human R38) in 0.1 ml PBS, was injected i.p. to 6 week old MRL/lpr/lpr mice three times a week and the mice were evaluated for survival (FIG. 9), and for renal histology. Control mice received 0.1 ml phosphate buffer solution. Each test and control group contained 12-15 mice.
# The survival of MRL/lpr/lpr mice treated with […], 5200 or 5300 was compared to that of PBS treated mice. […] In FIGS. 8 and 9 the time in days shown on the x axis relates to the age of the mice.
# [4] = test system: C72 murine anti-DNA antibody; test: Competitive inhibition of C72 binding to 5200; set-up: species or system mouse; conditions: FIG. 2, incubation with inhibiting agent
# Method: The binding of C72 to 5200 was tested before and after incubation with 5200, R38, R18, Heparin, DNA and DNase. […] The percent inhibition is the percent reduction of the O.D. after incubation with the inhibiting agent.
# C72 antibody = test: Immunoabsorption of C72 on R38 column, anti-R38 ELISA; assay type: binding, mouse
# Method: as §5, §6, §7
# [5] = test system: human monoclonal anti-DNA antibody DIL 6; test: Direct binding ELISA of DIL6 to laminin peptides; conditions: FIGS. 3 and 4
# Method: as §1, §2, §3
# [6] = test system: murine urinary immunoglobulins; test: Binding of murine urinary immunoglobulins, direct binding ELISA; set-up: species or system mouse; conditions: MRL/lpr/lpr mice, pooled urine
# Method: as §2
# Thus, pooled urine from at least 5 mice (either MRL/lpr/lpr or control mice, e.g. BALB/c) was added to wells coated with R38′ (5200), R18 or DNA as described above and bound 5200 assayed by ELISA.
# Each group is comprised of pooled urine.
B3 Binding ([1]; direct binding ELISA test after two (2) hours),C72 Binding ([2]; direct binding ELISA test after one (1) hour),50% Inhibition of C72 binding to mouse R38 (5100) (C72 anti-DNA antibody),SMILES,"Binding to R38 (O.D.) ([3]; Healthy donor's plasma, after immunoabsorption)","Binding to R38 (O.D.) ([3]; Healthy donor's plasma, original sample)","Binding to R38 (O.D.) ([3]; SLE patient 1 plasma, after immunoabsorption)","Binding to R38 (O.D.) ([3]; SLE patient 1 plasma, original sample)","Binding to R38 (O.D.) ([3]; SLE patient 2 plasma, after immunoabsorption)","Binding to R38 (O.D.) ([3]; SLE patient 2 plasma, original sample)",antibodies removed by affinity absorption on the column ([3]; human SLE patients' plasma),"survival (MRL/lpr/lpr mice; 50 μg i.p. three times a week, FIG. 9)",inhibition of the binding of C72 to 5200 [4],"Binding to R38 (O.D.) (C72 antibody; C72, after immunoabsorption on R38 column)","Binding to R38 (O.D.) (C72 antibody; C72, original sample)",anti-R38 activity removed by affinity absorption on the column (C72 antibody; mouse monoclonal C72),"survival (MRL/lpr/lpr mice; 60 μg i.p. once a week for 16 week, FIG. 8)",binding of B3 ([1]; FIGS. 3 and 4),"binding of C72 murine anti-DNA antibody to laminin peptides ([2]; FIG. 1, C72 conditioned medium in various dilutions)",binding of DIL 6 [5],Binding of murine urinary immunoglobulins to antigen [6]
0.03 O.D.,0.03 O.D.,85 µg/mL,CC[C@H](C)[C@H](NC(=O)[C@H](CC(N)=O)NC(=O)[C@@H](NC(=O)[C@H](CC(=O)O)NC(=O)[C@H](CO)NC(=O)[C@H](CCC(N)=O)NC(=O)[C@@H](NC(=O)[C@H](CCCCN)NC(=O)[C@H](Cc1ccc(O)cc1)NC(=O)CNC(=O)[C@H](CCC(=O)O)NC(=O)[C@@H](N)CCCCN)C(C)C)C(C)C)C(=O)N[C@H](C(=O)N[C@@H](CC(C)C)C(=O)N[C@@H](CCC(=O)O)C(=O)N[C@@H](Cc1ccccc1)C(=O)N[C@@H](CCCNC(=N)N)C(=O)N[C@H](C(=O)N[C@@H](CO)C(=O)N[C@@H](CO)C(=O)N[C@@H](CCC(N)=O)C(=O)O)[C@@H](C)O)[C@@H](C)O [Peptide 5300] (H-KEGYKVQSDVNITLEFRTSSQ-OH; N-terminus and C-terminus assumed),,,,,,,,,,,,,,,,,
,,,CC[C@H](C)[C@H](NC(=O)[C@H](CC(N)=O)NC(=O)[C@H](CC(C)C)NC(=O)[C@H](CC(=O)O)NC(=O)[C@H](CC(C)C)NC(=O)[C@H](CCCNC(=N)N)NC(=O)[C@@H](NC(=O)[C@H](CCCCN)NC(=O)[C@H](Cc1ccc(O)cc1)NC(=O)CNC(=O)[C@H](CCC(=O)O)NC(=O)[C@@H](N)CCCCN)C(C)C)C(=O)N[C@H](C(=O)N[C@@H](CC(C)C)C(=O)N[C@@H](CCC(=O)O)C(=O)N[C@@H](Cc1ccccc1)C(=O)N[C@@H](CCCNC(=N)N)C(=O)N[C@H](C(=O)N[C@H](C(=O)N[C@@H](CO)C(=O)N[C@@H](CCCCN)C(=O)O)[C@@H](C)O)[C@@H](C)O)[C@@H](C)O [Peptide 5100] (H-KEGYKVRLDLNITLEFRTTSK-OH; N-terminus and C-terminus assumed),0.06 O.D.,0.26 O.D.,0.6 O.D.,1.5 O.D.,1.6 O.D.,2.3 O.D.,30%-60%,significantly higher than that of control mice,inhibition,0.02 O.D.,1.96 O.D.,99%,,,,,
,,,CC(C)C[C@H](NC(=O)[C@H](CC(=O)O)NC(=O)[C@H](CC(C)C)NC(=O)[C@H](CCCNC(=N)N)NC(=O)[C@@H](NC(=O)[C@H](CCCCN)NC(=O)[C@H](Cc1ccc(O)cc1)NC(=O)CNC(=O)[C@H](CCC(=O)O)NC(=O)[C@@H](N)CCCCN)C(C)C)C(=O)N[C@@H](CC(N)=O)C(=O)N[C@H](C(=O)N[C@H](C(=O)N[C@@H](CC(C)C)C(=O)N[C@@H](CCC(=O)O)C(=O)N[C@@H](Cc1ccccc1)C(=O)N[C@@H](CCCNC(=N)N)C(=O)N[C@H](C(=O)N[C@H](C(=O)N[C@@H](CO)C(=O)N[C@@H](CCCCN)C(=O)O)[C@@H](C)O)[C@@H](C)O)[C@@H](C)O)[C@@H](C)O (stereo in doubt) [Peptide 5200],,,,,,,,,inhibition,,,,significantly higher than that of control mice,found to bind,binding,found to bind,0.26 (*) O.D. at 405 nm
